Source: ChEMBL document CHEMBL1201862, “PubChem BioAssay data set” (2004)
The source made the active and inactive calls. Unless noted, no cut-off for these calls is given here.

Assays:
[1] = cytotoxicity in L-6 rat myocytes, dose response, cytotoxicity control, cell-based, plate reader, cherry-pick (AID 651896); type: functional
[2] = L. donovani amastigote growth inhibition, dose response, axenic amastigotes, plate reader, cherry pick (AID 651891); type: functional, cell-based; conditions: Leishmania donovani
[3] = intracellular Trypanosoma cruzi inhibitors in host cells – cell-based, plate reader, cherry-pick samples, set 3, dose response (AID 651818); type: functional;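 note: compounds incubated with infected cells for about four days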
[4] = T. b. rhodesiense proliferation inhibition, dose response, STIB900 strain, plate reader, cherry pick (AID 651893); type: functional, cell-based; conditions: Trypanosoma brucei
[5] = P. falciparum blood-stage growth inhibition, dose response, NF54 strain, plate reader, dry powder (AID 651889); type: functional, cell-based
[6] = L-6 rat myoblast cytotoxicity, dose response, counter-screen for T. cruzi inhibitor project, cell-based, plate reader, dry powder (AID 651895); type: functional
[7] = T. cruzi growth inhibition in host cells, dose response, cell-based, plate reader, dry powder, set 2 (AID 652275); type: functional
[8] = growth inhibition of intracellular T. cruzi, dose response, cell-based, plate reader, dry powder samples (AID 651845); type: functional
[9] = T. cruzi intracellular amastigote growth inhibition, dose response, imaging, CA-I/72 strain, bovine embryo skeletal muscle, dry powder (AID 651885); type: functional, cell-based
[10] = L. donovani amastigote growth inhibition, dose response, axenic amastigotes, plate reader, dry powder (AID 651892); type: functional, cell-based
[11] = T. cruzi amastigote growth inhibition, dose response, Tulahuen strain, L-6 host cells, dry powder (AID 651890); type: functional, cell-based
[12] = T. b. rhodesiense proliferation inhibition, dose response, STIB900 strain, plate reader, dry powder (AID 651894); type: functional, cell-based
Paired box protein Pax-8 = Paired box protein Pax-8 (Homo sapiens, UniProt Q06710); experiment: inhibitors of PAX8-driven TPO luciferase reporter, dose response, RMG-I cells, cherry-pick (AID 687027); type: functional, cell-based;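 note: luciferase reporter driven by Pax8 target thyroperoxidase promoter measured by SteadyGlo luminescence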
[13] = PAX2 cell-based inhibition, dose response, selectivity assay for PAX8 inhibitor project, plate reader, dry powder samples (AID 743048); type: functional;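 note: HEK293 cells carrying a WT1 promoter luciferase reporter driven by expressed Pax2; potency is for inhibition of Pax2 driven reporter signal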
[14] = NIH:OVCAR-3 ovarian cancer cell cytotoxicity, dose response, PAX8 inhibitor project, plate reader, dry powder samples (AID 743044); type: functional, cell-based
[15] = PAX5 activity inhibitors, dose response, selectivity assay for PAX8 inhibitor project, cell-based, plate reader, dry powder samples (AID 743047); type: functional;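 note: HEK293 cells carrying a Pax5 driven CD19 promoter luciferase reporter; potency of inhibitors that lower reporter luminescence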
[16] = IGROV1 ovarian cancer cell cytotoxicity, dose response, PAX8 inhibitor project, plate reader, dry powder samples (AID 743043); type: functional, cell-based; conditions: IGROV-1
[17] = cytotoxicity in COV434 cells, dose response, cytotoxicity control for PAX8 inhibitor project, cell-based, plate reader, dry powder, SA7 (AID 743145); type: functional
[18] = cytotoxicity in OV-90 ovarian cancer cells, dose response, PAX8 inhibitor project, cell-based, plate reader, dry powder, SA8 (AID 743149); type: functional
[19] = cytotoxicity in OVCAR8 ovarian cancer cells, dose response, PAX8 project, cell-based, plate reader, dry powder samples (AID 743197); type: functional; conditions: OVCAR-8
[20] = cytotoxicity dependent on PAX8, dose response, cell-based, plate reader, dry powder (AID 743049); type: functional
[21] = P. falciparum Dd2 growth inhibitors, dose response, SYBR Green, cherry-picked samples (AID 1159567); type: functional, cell-based
[22] = HepG2 cell cytotoxicity, dose response, cytotoxicity control, cherry-picked samples (AID 1159577); type: functional, cell-based
[23] = Concentration-dependent survival of SW480 colon cancer line, luminescence detection with CellTiter-Glo, half-maximal inhibitory concentration (AID 1117338); type: functional
[24] = RKO cell viability reduction, dose response, CellTiter-Glo luminescence (AID 1117322); type: functional
[25] = cytotoxicity toward HCT116 cells – cell-based, CellTiter-Glo luminescence, IC50, dose response (AID 1117332); type: functional; conditions: HCT-116
[26] = SNU-C1 cell viability reduction, dose response, CellTiter-Glo luminescence (AID 1117323); type: functional, cell-based
[27] = cytotoxicity toward Colo320 cells – cell-based, CellTiter-Glo luminescence, IC50, dose response (AID 1117334); type: functional; conditions: COLO 320
[28] = cytotoxicity toward HT-29 cells – cell-based, CellTiter-Glo luminescence, IC50, dose response (AID 1117330); type: functional
[29] = CellTiter-Glo luminescent dose response of DLD-1 viability loss (AID 1117352); type: functional
[30] = HCT116 cell viability decrease, GSK3B pretreatment – CellTiter-Glo, IC50, dose response (AID 1117339); type: functional; conditions: HCT-116
[31] = target: G-protein coupled receptor 183 (Homo sapiens, UniProt P32249); experiment: SAR confirmation of small molecule antagonists of the EBI2 receptor via a luminescent beta-arrestin assa.; type: functional
[32] = P. falciparum Dd2 growth inhibitors, dose response, SYBR Green, dry powder samples, set 4 (AID 1159572); type: functional, cell-based
[33] = Orthopox viral replication plaque formation Measured in Cell-Based and Microorganism Combination System Using Imaging - 2142-05_Inhibitor_Dose_DryPowder_Activity.; type: functional
[34] = target: T1, Oxysterols receptor LXR-beta (Homo sapiens, UniProt P55055); type: functional, cell-based
T1 sequence (P55055 whole entry): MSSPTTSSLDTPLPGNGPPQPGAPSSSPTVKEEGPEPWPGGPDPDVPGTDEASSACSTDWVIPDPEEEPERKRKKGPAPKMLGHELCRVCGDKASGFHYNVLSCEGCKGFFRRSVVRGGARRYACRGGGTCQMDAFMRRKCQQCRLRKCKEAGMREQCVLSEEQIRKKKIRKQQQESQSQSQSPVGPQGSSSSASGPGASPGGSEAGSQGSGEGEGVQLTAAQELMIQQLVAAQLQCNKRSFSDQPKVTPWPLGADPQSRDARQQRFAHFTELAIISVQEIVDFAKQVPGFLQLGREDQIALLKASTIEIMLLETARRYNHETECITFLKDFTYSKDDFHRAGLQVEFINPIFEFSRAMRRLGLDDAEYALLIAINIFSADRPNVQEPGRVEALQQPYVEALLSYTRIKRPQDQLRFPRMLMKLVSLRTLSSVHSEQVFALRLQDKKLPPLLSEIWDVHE

[35] = target: T1, Oxysterols receptor LXR-beta; type: functional, cell-based; remark: listed apart in the source
[36] = HeLa 2N DNA content increase, dose response, cell-based, IC50 (AID 1117349); type: functional
[37] = HeLa 4N DNA content increase, dose response, cell-based, IC50 (AID 1117351); type: functional

Sequence of Paired box protein Pax-8 (Q06710 whole entry): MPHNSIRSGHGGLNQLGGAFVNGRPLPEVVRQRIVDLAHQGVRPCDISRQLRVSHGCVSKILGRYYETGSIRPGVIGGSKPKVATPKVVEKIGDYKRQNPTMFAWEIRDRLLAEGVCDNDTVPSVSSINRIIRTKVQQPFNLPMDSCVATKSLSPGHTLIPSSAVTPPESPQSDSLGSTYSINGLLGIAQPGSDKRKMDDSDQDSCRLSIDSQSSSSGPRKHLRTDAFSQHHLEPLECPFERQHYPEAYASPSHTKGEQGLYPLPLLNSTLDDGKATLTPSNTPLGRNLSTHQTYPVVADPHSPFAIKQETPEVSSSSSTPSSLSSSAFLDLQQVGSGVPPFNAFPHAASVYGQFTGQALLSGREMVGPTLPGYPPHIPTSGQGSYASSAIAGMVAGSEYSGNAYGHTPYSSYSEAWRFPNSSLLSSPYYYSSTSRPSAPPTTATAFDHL
Sequence of G-protein coupled receptor 183 (P32249 whole entry): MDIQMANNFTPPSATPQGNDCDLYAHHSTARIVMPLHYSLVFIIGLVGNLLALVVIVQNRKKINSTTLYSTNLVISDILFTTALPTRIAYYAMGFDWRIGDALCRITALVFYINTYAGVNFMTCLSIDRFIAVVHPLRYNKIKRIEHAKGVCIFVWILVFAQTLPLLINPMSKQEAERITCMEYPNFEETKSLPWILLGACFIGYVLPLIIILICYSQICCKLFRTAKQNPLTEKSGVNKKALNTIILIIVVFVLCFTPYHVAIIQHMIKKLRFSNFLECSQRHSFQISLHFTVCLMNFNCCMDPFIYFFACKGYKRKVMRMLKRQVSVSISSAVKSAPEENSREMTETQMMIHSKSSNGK

With C[C@@H]1CN([C@H](C)CO)C(=O)c2cccc(NC(=O)c3ccncc3)c2O[C@@H]1CN(C)Cc1ccc(Oc2ccccc2)cc1 the IC50 [1] was 44.2 µM (inactive), the IC50 [2] was > 100 µM (inactive) and the AC50 [3] was 1.05 µM (active). The IC50 [4] was 2.63 µM (inactive), the IC50 [5] was 2.23 µM (inactive) and the IC50 [6] was 64.6 µM (inactive). The AC50 [7] was 0.309 µM (active), the AC50 [8] was 0.286 µM (active) and the IC50 [9] was 2 µM (active). The IC50 [10] was > 100 µM (inactive), the IC50 [11] was 1.16 µM (active) and the IC50 [12] was 1.31 µM (inactive).
For COc1cccc(C#Cc2ccc([C@H]3[C@@H](CO)N(C(=O)c4ccccn4)[C@H]3C#N)cc2)c1, the AC50 (Paired box protein Pax-8) was 2.41 µM (active), the AC50 [13] was 9.59 µM (active) and the AC50 [14] was 14.6 µM (active). The AC50 [15] was 7.82 µM (active), the AC50 [16] was 17.8 µM (active) and the AC50 [17] was 18.4 µM (active). For the same compound, the AC50 [18] was 24.1 µM (active), the AC50 [19] was 51.4 µM (active) and the AC50 [20] was 10.4 µM (active). For the same compound, the AC50 [21] was 1.27 µM (active) and the AC50 [22] was > 39 µM (inactive).
In the case of CCCCCCCC[N+](C)(C)CCCCCCCC, the IC50 [23] is reported as 3.46 µM (active), the IC50 [24] is reported as 2.18 µM (active) and the IC50 [25] is reported as 6.24 µM (inactive). For the same compound, the IC50 [26] was 1.44 µM (active), the IC50 [27] was 4.66 µM (active) and the IC50 [28] was 4 µM (active). For the same compound, the IC50 [29] was 3.22 µM (active) and the IC50 [30] was 3.69 µM (active).
For Cc1ccccc1/C=C/C(=O)N1CCN(S(=O)(=O)c2ccc(Br)cc2)CC1, the IC50 [31] was 0.187 µM (active).
For COc1ccc2c3c([nH]c2c1)[C@H](CO)N(C(C)=O)CC31CCN(C(=O)c2cccc(F)c2)CC1, the AC50 [32] was 14.1 µM (active).
With CO[C@H]1CN(C)C(=O)c2ccc(NC(=O)c3ccc(F)cc3)cc2OC[C@H](C)N(C(=O)c2ccc(F)cc2)C[C@@H]1C the AC50 [33] was 5.72 µM (active).
For O=c1[nH]c(=O)n([C@H]2C[C@H](O)[C@@H](CO)O2)cc1Br [BROXURIDINE], the EC50 [34] was > 67.5 µM (inactive), the EC50 [35] was > 67.6 µM (inactive) and the IC50 [36] was > 10 µM (inactive). For the same compound, the IC50 [37] was > 10 µM (inactive) and the EC50 (cells) was > 67.5 µM (inactive).
